Results on one compound are retold here after ChEMBL document CHEMBL5252612, “A novel selective estrogen receptor degrader induces cell cycle arrest in breast cancer via ERα degradation and the autophagy-lysosome pathway” (Bioorg Med Chem, 2023).

Data set [1] concerns MCF7. In words: Induction of cell cycle arrest in human MCF7 cells assessed as proportion of cells at G2 phase at 1 uM incubated for 24 hrs by flow cytometry (reference value: 25.5%). The class given is functional. On the technique in general: A flow cytometer gives signals particle by particle.
The subject of data set [2] is MCF7. The data set can be described thus: Induction of cell cycle arrest in human MCF7 cells assessed as proportion of cells at S phase at 1 uM incubated for 24 hrs by flow cytometry (reference value: 27.6%). The class given is functional.
The target in data set [3] is T1, Estrogen receptor (Homo sapiens) (UniProt P03372).
T1 sequence (whole entry): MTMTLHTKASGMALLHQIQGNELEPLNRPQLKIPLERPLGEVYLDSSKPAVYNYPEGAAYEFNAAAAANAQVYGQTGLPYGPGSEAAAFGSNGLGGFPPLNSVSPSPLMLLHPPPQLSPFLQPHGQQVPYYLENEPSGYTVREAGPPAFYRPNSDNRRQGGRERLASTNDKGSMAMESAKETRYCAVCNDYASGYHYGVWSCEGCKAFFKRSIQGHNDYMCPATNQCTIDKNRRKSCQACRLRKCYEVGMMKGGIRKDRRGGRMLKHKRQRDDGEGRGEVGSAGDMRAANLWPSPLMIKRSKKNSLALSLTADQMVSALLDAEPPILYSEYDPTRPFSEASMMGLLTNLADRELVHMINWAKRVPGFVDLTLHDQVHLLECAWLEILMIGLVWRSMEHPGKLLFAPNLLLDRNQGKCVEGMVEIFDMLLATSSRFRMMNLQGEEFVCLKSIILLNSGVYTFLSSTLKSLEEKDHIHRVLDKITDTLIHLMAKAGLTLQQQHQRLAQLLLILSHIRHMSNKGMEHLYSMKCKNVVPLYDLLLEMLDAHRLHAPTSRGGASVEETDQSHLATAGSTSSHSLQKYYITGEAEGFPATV
The data set can be described thus: Induction of ER-alpha degradation in human T47D cells assessed as decrease in ER-alpha protein expression in presence of autophagy inhibitor, 3-MA of by western blot analysis. The class given is cell-based. A general note: Immunoblotting shows a protein as a band on a membrane.

Data set [4] is described as follows: Toxicity in BALB/c nude mouse xenografted with human MCF7 cells assessed as liver cell morphological changes at 2 to 4 mg/kg, ip administered every other day by Hematoxylin and eosin staining based analysis. The following applies: in vivo, dose 2-4 mg/kg. The class given is organism-based.
Data set [5] relates to MCF7. The data set can be described thus: Induction of apoptosis and necrosis in human MCF7 cells assessed as live cells at 10 uM incubated for 48 hrs by AnnexinV-FITC/PI staining based flow cytometry (reference value: 92.97%). The class given is functional.
Data set [6] has as its system T47D. In words: Induction of autophagy in human T47D cells assessed as increase in LC3 protein expression at 5 to 10 uM incubated for 24 hrs by western blot analysis. The class given is functional, cell-based. The note with it: dose 5-10 µM.
The subject of data set [7] is T47D. In words: Induction of autophagy in human T47D cells assessed as upregulation of CTSD protein expression at 10 uM incubated for 24 hrs by western blot analysis. The class given is functional, cell-based.
The subject of data set [8] is T47D. In words: Induction of cell cycle arrest in human T47D cells overexpressing MYC assessed as proportion of cells at S phase at 10 uM incubated for 24 hrs by flow cytometry (reference value: 24.2%). The class given is functional.
Data set [9] has as its system T47D. In words: Downregulation of ER-alpha mRNA expression in human T47D cells by RT-qPCR analysis. The class given is functional, cell-based. On the technique in general: In qPCR the cycle at which signal appears reflects the starting amount.
The test system of data set [10] is T47D. In words: Induction of autophagy in human T47D cells assessed as increase in LC3 protein expression at 5 to 10 uM incubated for 24 hrs in presence of chloroquine by western blot analysis. The class given is functional, cell-based. The following applies: dose 5-10 µM.
A short description of data set [11]: Induction of cell cycle arrest in tamoxifen-resistant human LCC2 cells assessed as proportion of cells at G2 phase at 1 uM by flow cytometry (reference value: 23.7%). The class given is functional.
For data set [12], the system named is T47D. In words: Induction of cell cycle arrest in human T47D cells assessed as proportion of cells at G2 phase at 1 uM incubated for 24 hrs by flow cytometry (reference value: 24.4%). The class given is functional.
In data set [13] the test system is LCC2. In words: Inhibition of colony formation in tamoxifen-resistant human LCC2 cells at 1 uM incubated for 14 days by crystal violet staining based analysis. The class given is functional, cell-based. The note with it: time 14.0 day.
Data set [14] is described as follows: Induction of cell cycle arrest in tamoxifen-resistant human LCC2 cells assessed as proportion of cells at G1 phase at 1 uM by flow cytometry (reference value: 47.4%). The class given is functional.
Data set [15] deals with T47D. The data set can be described thus: Anticancer activity against ER-alpha positive human T47D cells assessed as reduction in cell viability at 10 uM measured after 48 hrs by CCK8 assay. The class given is functional, cell-based.
The subject of data set [16] is MCF7. In words: Induction of cell cycle arrest in human MCF7 cells assessed as proportion of cells at S phase at 5 uM incubated for 24 hrs by flow cytometry (reference value: 27.6%). The class given is functional.
Data set [17] has as its system T47D. In words: Induction of autophagy in human T47D cells assessed as downregulation of MYC protein expression at 5 to 10 uM incubated for 24 hrs in presence of autophagy inhibitor, CQ by western blot analysis. The class given is functional, cell-based. The following applies: dose 5-10 µM.
In data set [18] the test system is T47D. The data set can be described thus: Induction of cell cycle arrest in human T47D cells assessed as proportion of cells at S phase at 10 uM incubated for 24 hrs by flow cytometry (reference value: 27.7%). The class given is functional.
Data set [19] addresses T1, Estrogen receptor (Homo sapiens). The data set can be described thus: Induction of ER-alpha degradation in tamoxifen-resistant human LCC2 cells assessed as decrease in ER-alpha protein expression at 10 uM by western blot analysis. The class given is cell-based.
Data set [20] concerns MCF7. The data set can be described thus: Induction of apoptosis and necrosis in human MCF7 cells assessed as live cells at 20 uM incubated for 48 hrs by AnnexinV-FITC/PI staining based flow cytometry (reference value: 92.97%). The class given is functional.
Data set [21] deals with T47D. The data set can be described thus: Induction of autophagy in human T47D cells overexpressing ESR1 assessed as increase in lysosome number by LysoTracker dye based confocal microscopy. The class given is functional, cell-based.

The source made the active and inactive calls. The rule behind the calls is not given here.

For `COc1ccc(N(CC(F)(F)F)S(=O)(=O)C2CC3OC2C(c2ccc(OCCN4CCCC4)cc2)=C3c2ccc(O)cc2)cc1` (stereo unspecified), the Activity in [1] is on record as 18.5%; in data set [2] it was 15.7%; in data set [4], “Non-Toxic”; in [5] it was 83.71%; in data set [8], 22.6%; in data set [11], 16.6%. In addition, the Activity in data set [12] is 23.3%; in [14], 63.9%; in data set [16] it was 15%; in [18], 10.2%; in data set [20] it was 53.55%. For the same compound, the outcome in data set [3], in [6], in [7], in [10], in data set [15] and in data set [19] was Active. Also, the result in data set [21] was Active. Besides, the inhibition result in [9] and in [13] was “Active” throughout. Further, the outcome in data set [17] was inactive.
